# From ChEMBL document CHEMBL1135072, “Substituted N-(3,5-dichlorobenzenesulfonyl)-L-prolyl-phenylalanine analogues as potent VLA-4 antagonists” (Bioorg Med Chem Lett, 2002)
# Tests used:
# Integrin alpha-4/beta-1 = Integrin alpha-4/beta-1 (Homo sapiens, UniProt P05556+P13612); experiment: Inhibitory activity against very late antigen-4 (VLA-4) using VCAM-Ig ligand.; type: protein-complex assay
# [1] = molecular target: T1, Integrin alpha-4/beta-7 (Homo sapiens) (UniProt P13612+P26010); experiment: Inhibition of MadCAM-Ig binding to alpha-4 beta-7 integrin at 20 uM; type: protein-complex assay
# [2] = molecular target: T1, Integrin alpha-4/beta-7 (Homo sapiens); experiment: Inhibition of MadCAM-Ig binding to alpha-4 beta-7 integrin at 0.1 uM; type: protein-complex assay
# Integrin alpha-4/beta-7 = molecular target: T2, Integrin alpha-4/beta-7 (Homo sapiens, UniProt P13612+P26010); experiment: Inhibition of MadCAM-Ig binding to alpha-4 beta-7 integrin; type: protein-complex assay
# T2 sequence (P13612 whole entry): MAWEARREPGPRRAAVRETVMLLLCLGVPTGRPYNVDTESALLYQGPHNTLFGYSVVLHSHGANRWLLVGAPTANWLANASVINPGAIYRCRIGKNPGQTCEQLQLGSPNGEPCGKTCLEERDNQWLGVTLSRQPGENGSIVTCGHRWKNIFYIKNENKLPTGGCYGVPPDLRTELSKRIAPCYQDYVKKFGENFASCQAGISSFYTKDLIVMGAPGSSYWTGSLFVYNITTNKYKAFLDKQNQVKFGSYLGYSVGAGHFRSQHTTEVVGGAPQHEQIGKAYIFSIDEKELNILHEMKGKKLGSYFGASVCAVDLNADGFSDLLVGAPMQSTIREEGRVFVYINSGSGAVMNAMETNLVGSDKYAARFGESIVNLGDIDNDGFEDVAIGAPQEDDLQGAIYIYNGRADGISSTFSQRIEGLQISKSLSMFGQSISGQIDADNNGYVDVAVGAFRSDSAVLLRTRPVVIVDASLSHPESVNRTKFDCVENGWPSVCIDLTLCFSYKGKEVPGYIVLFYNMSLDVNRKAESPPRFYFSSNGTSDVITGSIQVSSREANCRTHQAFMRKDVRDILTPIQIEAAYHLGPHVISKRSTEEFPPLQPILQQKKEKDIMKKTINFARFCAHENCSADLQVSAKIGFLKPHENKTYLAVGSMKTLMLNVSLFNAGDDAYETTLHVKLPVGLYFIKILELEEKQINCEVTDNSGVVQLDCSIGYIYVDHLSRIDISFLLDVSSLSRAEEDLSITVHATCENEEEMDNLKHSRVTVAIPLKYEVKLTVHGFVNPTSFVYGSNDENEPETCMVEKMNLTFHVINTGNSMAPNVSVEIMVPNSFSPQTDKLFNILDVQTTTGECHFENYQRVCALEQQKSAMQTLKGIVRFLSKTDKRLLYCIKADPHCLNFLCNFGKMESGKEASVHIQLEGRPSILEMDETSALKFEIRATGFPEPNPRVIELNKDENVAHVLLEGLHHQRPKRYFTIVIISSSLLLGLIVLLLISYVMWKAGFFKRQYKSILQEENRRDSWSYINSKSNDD
# T2 sequence (P26010 whole entry): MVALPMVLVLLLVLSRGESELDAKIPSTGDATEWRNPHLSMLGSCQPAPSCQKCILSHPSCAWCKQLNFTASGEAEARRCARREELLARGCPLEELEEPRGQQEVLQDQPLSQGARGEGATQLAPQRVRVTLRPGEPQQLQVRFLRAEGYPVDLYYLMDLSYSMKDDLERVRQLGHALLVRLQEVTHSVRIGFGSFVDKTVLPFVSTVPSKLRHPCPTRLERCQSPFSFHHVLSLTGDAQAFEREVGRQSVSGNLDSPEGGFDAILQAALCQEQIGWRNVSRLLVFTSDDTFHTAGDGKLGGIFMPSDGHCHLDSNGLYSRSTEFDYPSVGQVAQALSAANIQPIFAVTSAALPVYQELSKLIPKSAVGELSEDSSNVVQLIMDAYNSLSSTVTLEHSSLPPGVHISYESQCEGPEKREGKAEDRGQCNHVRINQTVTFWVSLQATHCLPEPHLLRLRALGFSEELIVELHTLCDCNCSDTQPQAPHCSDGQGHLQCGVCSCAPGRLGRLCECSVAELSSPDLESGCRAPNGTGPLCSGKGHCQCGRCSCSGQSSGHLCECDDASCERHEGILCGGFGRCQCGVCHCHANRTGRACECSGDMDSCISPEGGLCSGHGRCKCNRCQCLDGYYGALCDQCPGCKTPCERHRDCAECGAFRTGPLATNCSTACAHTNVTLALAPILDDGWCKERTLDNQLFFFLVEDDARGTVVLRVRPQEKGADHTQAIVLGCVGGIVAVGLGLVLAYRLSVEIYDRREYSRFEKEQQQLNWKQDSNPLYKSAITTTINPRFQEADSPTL
# in vivo = conditions: Sprague-Dawley, rat, plasma
# [3] = Volume of distribution was reported in Sprague-Dawley rat; conditions: in vivo
# [4] = Plasma clearance was reported in Sprague-Dawley rat
# Rattus norvegicus = organism: Rattus norvegicus; experiment: The plasma concentration versus time curve (AUC) was determined; conditions: in vivo
# Sequence of Integrin alpha-4/beta-1 (P05556 whole entry, one chain of several): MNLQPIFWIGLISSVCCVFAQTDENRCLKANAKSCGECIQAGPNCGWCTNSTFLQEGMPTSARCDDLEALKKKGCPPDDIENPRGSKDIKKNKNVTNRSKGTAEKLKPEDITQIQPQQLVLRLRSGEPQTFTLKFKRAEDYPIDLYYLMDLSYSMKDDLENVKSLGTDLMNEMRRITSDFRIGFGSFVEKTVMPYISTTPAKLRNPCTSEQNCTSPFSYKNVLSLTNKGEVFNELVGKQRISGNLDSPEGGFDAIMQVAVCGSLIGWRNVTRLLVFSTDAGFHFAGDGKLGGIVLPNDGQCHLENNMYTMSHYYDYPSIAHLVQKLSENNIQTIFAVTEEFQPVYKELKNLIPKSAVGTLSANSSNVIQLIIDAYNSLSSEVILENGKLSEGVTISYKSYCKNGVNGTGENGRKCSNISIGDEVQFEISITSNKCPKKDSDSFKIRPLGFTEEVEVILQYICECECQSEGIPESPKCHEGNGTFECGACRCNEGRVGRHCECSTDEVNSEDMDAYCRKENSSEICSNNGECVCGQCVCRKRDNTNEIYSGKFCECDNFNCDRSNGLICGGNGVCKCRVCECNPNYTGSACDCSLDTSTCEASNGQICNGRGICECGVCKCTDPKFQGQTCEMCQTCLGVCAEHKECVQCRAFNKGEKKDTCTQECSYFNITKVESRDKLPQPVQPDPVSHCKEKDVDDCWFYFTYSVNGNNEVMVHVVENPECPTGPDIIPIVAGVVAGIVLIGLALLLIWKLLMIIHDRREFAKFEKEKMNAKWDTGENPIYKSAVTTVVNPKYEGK
Compound,IC50 (Integrin alpha-4/beta-1) [nM],further results
C[C@]1(C(=O)N[C@H](Cc2ccccc2)C(=O)O)CCCN1S(=O)(=O)c1cc(Cl)cc(Cl)c1,28400,
C[C@@]1(C(=O)N[C@@H](Cc2ccccc2F)C(=O)O)CCCN1S(=O)(=O)c1cc(Cl)cc(Cl)c1,1.7,inhibition [2]: < 5%
C[C@@]1(C(=O)N[C@@H](Cc2ccccc2Cl)C(=O)O)CCCN1S(=O)(=O)c1cc(Cl)cc(Cl)c1,1.8,inhibition [2]: < 16%
O=C(O)[C@H](Cc1cccs1)NC(=O)[C@@H]1CCCN1S(=O)(=O)c1cc(Cl)cc(Cl)c1,0.92,IC50 (Integrin alpha-4/beta-7): 2850 nM
C[C@@]1(C(=O)N[C@H](Cc2ccccc2)C(=O)O)CCCN1S(=O)(=O)c1cc(Cl)cc(Cl)c1,152,
O=C(O)[C@H](Cc1cccnc1)NC(=O)[C@@H]1CCCN1S(=O)(=O)c1cc(Cl)cc(Cl)c1,0.86,IC50 (Integrin alpha-4/beta-7): 2100 nM
O=C(O)[C@H](Cc1ccncc1)NC(=O)[C@@H]1CCCN1S(=O)(=O)c1cc(Cl)cc(Cl)c1,0.67,inhibition [1]: 45%
O=C(O)[C@H](Cc1cc(F)cc(F)c1)NC(=O)[C@@H]1CCCN1S(=O)(=O)c1cc(Cl)cc(Cl)c1,1.1,
O=C(O)[C@H](Cc1ccc(F)c(F)c1)NC(=O)[C@@H]1CCCN1S(=O)(=O)c1cc(Cl)cc(Cl)c1,0.48,
O=C(O)[C@H](Cc1ccc(I)cc1)NC(=O)[C@@H]1CCCN1S(=O)(=O)c1cc(Cl)cc(Cl)c1,0.33,
C[C@@]1(C(=O)N[C@@H](Cc2ccc(I)cc2)C(=O)O)CCCN1S(=O)(=O)c1cc(Cl)cc(Cl)c1,4.77,inhibition [1]: 58%
N#Cc1ccc(C[C@H](NC(=O)[C@@H]2CCCN2S(=O)(=O)c2cc(Cl)cc(Cl)c2)C(=O)O)cc1,0.79,
C[C@@]1(C(=O)N[C@@H](Cc2cccc(F)c2)C(=O)O)CCCN1S(=O)(=O)c1cc(Cl)cc(Cl)c1,0.9,inhibition [2]: < 5%
O=C(O)[C@H](Cc1ccc(Br)cc1)NC(=O)[C@@H]1CCCN1S(=O)(=O)c1cc(Cl)cc(Cl)c1,0.92,
O=C(O)[C@H](Cc1cccc(C(F)(F)F)c1)NC(=O)[C@@H]1CCCN1S(=O)(=O)c1cc(Cl)cc(Cl)c1,3.2,
CC(C)(C)Oc1ccc(C[C@H](NC(=O)[C@@H]2CCCN2S(=O)(=O)c2cc(Cl)cc(Cl)c2)C(=O)O)cc1,0.22,
C[C@@]1(C(=O)N[C@@H](Cc2ccc(C#N)cc2)C(=O)O)CCCN1S(=O)(=O)c1cc(Cl)cc(Cl)c1,1.6,inhibition [2]: 29%
C[C@@]1(C(=O)N[C@@H](Cc2ccc(Cl)cc2)C(=O)O)CCCN1S(=O)(=O)c1cc(Cl)cc(Cl)c1,2.3,inhibition [2]: < 16%
O=C(O)[C@H](Cc1ccc(Cl)cc1)NC(=O)[C@@H]1CCCN1S(=O)(=O)c1cc(Cl)cc(Cl)c1,0.85,
O=C(O)[C@H](Cc1ccc([N+](=O)[O-])cc1)NC(=O)[C@@H]1CCCN1S(=O)(=O)c1cc(Cl)cc(Cl)c1,0.3,
C[C@@]1(C(=O)N[C@@H](Cc2ccc(C(F)(F)F)cc2)C(=O)O)CCCN1S(=O)(=O)c1cc(Cl)cc(Cl)c1,3.9,inhibition [2]: 25%
C[C@@]1(C(=O)N[C@@H](Cc2cccc(Cl)c2)C(=O)O)CCCN1S(=O)(=O)c1cc(Cl)cc(Cl)c1,1.7,inhibition [2]: < 16%
CCc1ccc(C[C@H](NC(=O)[C@]2(C)CCCN2S(=O)(=O)c2cc(Cl)cc(Cl)c2)C(=O)O)cc1,1.88,inhibition [2]: 2%

# Further compounds by falling IC50 (Integrin alpha-4/beta-1), results first:
IC50 (Integrin alpha-4/beta-1) [nM],Compound,further results
2060,C[C@]1(C(=O)N[C@@H](Cc2ccccc2)C(=O)O)CCCN1S(=O)(=O)c1cc(Cl)cc(Cl)c1,
26.5,O=C(O)[C@H](Cc1ccccn1)NC(=O)[C@@H]1CCCN1S(=O)(=O)c1cc(Cl)cc(Cl)c1,
3.8,C[C@@]1(C(=O)N[C@@H](Cc2ccc(OC(F)(F)F)cc2)C(=O)O)CCCN1S(=O)(=O)c1cc(Cl)cc(Cl)c1,half-life (in vivo): 54 min; Vd [3]: 1.4 L/kg; clearance [4]: 36 mL/min/kg
3.6,O=C(O)[C@H](Cc1cccc(Cl)c1)NC(=O)[C@@H]1CCCN1S(=O)(=O)c1cc(Cl)cc(Cl)c1,
1.61,C[C@@]1(C(=O)N[C@@H](Cc2cccs2)C(=O)O)CCCN1S(=O)(=O)c1cc(Cl)cc(Cl)c1,inhibition [1]: 45%
1.31,C[C@@]1(C(=O)N[C@@H](Cc2ccncc2)C(=O)O)CCCN1S(=O)(=O)c1cc(Cl)cc(Cl)c1,inhibition [2]: 13%
1.3,O=C(O)[C@H](Cc1ccccc1F)NC(=O)[C@@H]1CCCN1S(=O)(=O)c1cc(Cl)cc(Cl)c1,
1.2,C[C@@]1(C(=O)N[C@@H](Cc2ccc(F)cc2)C(=O)O)CCCN1S(=O)(=O)c1cc(Cl)cc(Cl)c1,half-life (in vivo): 72 min; plasma concentration (Rattus norvegicus): ~ 1 nM; inhibition [2]: < 5%; Vd [3]: 1.2 L/kg; clearance [4]: 44 mL/min/kg
1,C[C@@]1(C(=O)N[C@@H](Cc2ccccc2)C(=O)O)CCCN1S(=O)(=O)c1cc(Cl)cc(Cl)c1,IC50 (Integrin alpha-4/beta-7): 3550 nM
0.99,O=C(O)[C@H](Cc1ccccc1Cl)NC(=O)[C@@H]1CCCN1S(=O)(=O)c1cc(Cl)cc(Cl)c1,
0.86,C[C@@]1(C(=O)N[C@@H](Cc2ccc(O)cc2)C(=O)O)CCCN1S(=O)(=O)c1cc(Cl)cc(Cl)c1,
0.86,O=C(O)[C@H](Cc1ccc(OC(F)(F)F)cc1)NC(=O)[C@@H]1CCCN1S(=O)(=O)c1cc(Cl)cc(Cl)c1,
0.73,O=C(O)[C@H](Cc1cscn1)NC(=O)[C@@H]1CCCN1S(=O)(=O)c1cc(Cl)cc(Cl)c1,IC50 (Integrin alpha-4/beta-7): 2350 nM
0.67,O=C(O)[C@H](Cc1cccc(F)c1)NC(=O)[C@@H]1CCCN1S(=O)(=O)c1cc(Cl)cc(Cl)c1,
0.65,O=C(O)[C@H](Cc1ccc(-c2ccccc2)cc1)NC(=O)[C@@H]1CCCN1S(=O)(=O)c1cc(Cl)cc(Cl)c1,
0.59,COc1ccc(C[C@H](NC(=O)[C@]2(C)CCCN2S(=O)(=O)c2cc(Cl)cc(Cl)c2)C(=O)O)cc1,half-life (in vivo): 36 min; inhibition [2]: 16%; Vd [3]: 1.4 L/kg; clearance [4]: 47 mL/min/kg
0.48,O=C(O)[C@H](Cc1ccc(F)cc1)NC(=O)[C@@H]1CCCN1S(=O)(=O)c1cc(Cl)cc(Cl)c1,
0.44,CCc1ccc(C[C@H](NC(=O)[C@@H]2CCCN2S(=O)(=O)c2cc(Cl)cc(Cl)c2)C(=O)O)cc1,
